Source: patent US20090111847A1, “PREPARATION METHOD AND USE OF COMPOUNDS HAVING HIGH INSECTICIDAL ACTIVITIES” (priority 2006, published 2009)

Key:
Aphis craccivora = assay: Insecticidal activity against Aphis craccivora by immersing (mortality after 24 hours); assay type: in vivo; settings: for Mortality (%) (500 ppm) Aphis craccivora: in vivo; for mortality at 500 ppm: Aphis craccivora, 24 h, read-out: Mortality (%) (500 ppm) Aphis craccivora
Method: Aphis, which belongs to Homoptera and has a piercing-sucking mouthpart, is a common insect for agricultural plant. Aphis craccivora was tested by the way of immersing.
Test method: exactly weighed various samples were independently added to N,N-dimethylformamide to form a 10 g/L stock solution. The mixture was diluted with 0.2 mL/L aqueous Triton X-100 solution to a concentration of 500 ug/mL. After stably sucking on bean sprout, the adult aphis without wings together with bean sprout was dipped into the dilution of 500 ug/mL, 100 ug/mL, 50 ug/mL, 25 ug/mL, 12.5 ug/mL, 6.25 ug/mL (LD50 was calculated), taken out after 5 seconds, and the excess dilution was sucked out with bibulous paper and the adult aphis without wings was incubated in clean vessel at a constant temperature of 23° C. Each concentration was repeated for 3 times and the control group contained 0.2 mL/L aqueous Triton X-100 solution. The number of killed aphis was counted after 24 hours to calculate the mortality.

Nilaparvata lugens = assay: Insecticidal activity against Nilaparvata lugens by spraying (mortality after 24 hours); assay type: in vivo; settings: for Mortality (%) (500 ppm) Nilaparvata lugens: spraying 2 ml, counted after 24 hours; for mortality at 500 ppm: Nilaparvata lugens, 24 h, read-out: Mortality (%) (500 ppm) Nilaparvata lugens
Method: Plant hopper, which belongs to Homoptera and has a piercing-sucking mouthpart, is a common insect for agricultural plant. Nilaparvata lugens was tested by the way of spraying.
Test method: the compound to be tested was exactly formulated into a solution having a certain concentration and clean water was used as a blank control. Each process was repeated for 3 tumblers (3 times). 2 ml of solution was sprayed uniformly to each tumbler by a mini manual sprayer. 10 Nilaparvata lugens were introduced to every sink 6 hours before spraying. Three series of experiments were conducted. The number of killed Nilaparvata lugens was counted after 24 hours to calculate the mortality.

SMILES	Mortality (%) (500 ppm) Aphis craccivora (Aphis craccivora)	Mortality (%) (500 ppm) Nilaparvata lugens (Nilaparvata lugens)	mortality at 500 ppm (Aphis craccivora) [%]	mortality at 500 ppm (Nilaparvata lugens) [%]
CCC1CC([N+](=O)[O-])=C2N(Cc3ccc(Cl)nc3)CCN2C1OC (stereo not drawn) [Compound 27]	92	80	–	–
CCCC1CC([N+](=O)[O-])=C2N(Cc3ccc(Cl)nc3)CCN2C1O (stereo not drawn) [Compound 28]	100	96	–	–
CCCC1CC([N+](=O)[O-])=C2N(Cc3ccc(Cl)nc3)CCN2C1OCC (stereo not drawn) [Compound 29]	100	97	–	–
CC1C([N+](=O)[O-])=C2N(Cc3ccc(Cl)nc3)CCN2C(O)C1C (stereo not drawn) [Compound 30, 1-((6-chloropyridin-3-yl)methyl)-6,7-dimethyl-8-nitro-1,2,3,5,6,7-hexahydroimidazo[1,2-a]pyridin-5-ol]	–	–	100	100
CC1(C)CC(O)N2CCN(Cc3ccc(Cl)nc3)C2=C1[N+](=O)[O-] (stereo not drawn) [Compound 31]	96	100	–	–
COC1CC(C)(C)C([N+](=O)[O-])=C2N(Cc3ccc(Cl)nc3)CCN21 (stereo not drawn) [Compound 32]	100	100	–	–
CCC1C(C)C([N+](=O)[O-])=C2N(Cc3ccc(Cl)nc3)CCN2C1O (stereo not drawn) [Compound 33]	92	78	–	–
CCCC1C(C)C([N+](=O)[O-])=C2N(Cc3ccc(Cl)nc3)CCN2C1O (stereo not drawn) [Compound 34]	95	90	–	–
CCC1C([N+](=O)[O-])=C2N(Cc3ccc(Cl)nc3)CCN2C(O)C1C (stereo not drawn) [Compound 35]	100	88	–	–
CC1C(O)N2CCN(Cc3ccc(Cl)nc3)C2=C([N+](=O)[O-])C1(C)C (stereo not drawn) [Compound 36]	94	97	–	–
CCC1C(O)N2CCN(Cc3ccc(Cl)nc3)C2=C([N+](=O)[O-])C1(C)C (stereo not drawn) [Compound 37]	99	88	–	–
O=[N+]([O-])C1=C2N(Cc3ccc(Cl)nc3)CCN2C(O)CC1c1ccccc1 (stereo not drawn) [Compound 38, 1-((6-chloropyridin-3-yl)methyl)-8-nitro-7-phenyl-1,2,3,5,6,7-hexahydroimidazo[1,2-a]pyridin-5-ol]	–	–	24	0
COC1CC(c2ccccc2)C([N+](=O)[O-])=C2N(Cc3ccc(Cl)nc3)CCN21 (stereo not drawn) [Compound 39]	45	0	–	–
CCCCC1CC(O)N2CCN(Cc3ccc(Cl)nc3)C2=C1[N+](=O)[O-] (stereo not drawn) [Compound 41]	72	50	–	–
COC1CC(O)N2CCN(Cc3ccc(Cl)nc3)C2=C1[N+](=O)[O-] (stereo not drawn) [Compound 42, 1-((6-chloropyridin-3-yl)methyl)-7-methoxy-8-nitro-1,2,3,5,6,7-hexahydroimidazo[1,2-a]pyridin-5-ol]	–	–	100	97
COC1C([N+](=O)[O-])=C2N(Cc3ccc(Cl)nc3)CCN2C(O)C1C (stereo not drawn) [Compound 43]	100	97	–	–
COC1CC(O)N2CCN(Cc3cnc(Cl)s3)C2=C1[N+](=O)[O-] (stereo not drawn) [Compound 44]	100	97	–	–
CCOC1CC(O)N2CCN(Cc3ccc(Cl)nc3)C2=C1[N+](=O)[O-] (stereo not drawn) [Compound 45]	100	89	–	–
